Assay results as given in patent US20260070902A1, “SULFONYL DERIVATIVES AS CCR6 INHIBITORS” (Hoffmann-La Roche Inc., priority 2022, published 2026).

Tests used:
[1] = biological target: T1, human CCR6 (Homo sapiens, UniProt P51684); assay: CHO-K1 CCR6 chemotaxis assay towards CCL20; format: cell-based; details: relative -Log IC50; CHO-K1 cells overexpressing human CCR6; migration towards 100 ng/ml CCL20; 4 h
T1 sequence (P51684 1-374): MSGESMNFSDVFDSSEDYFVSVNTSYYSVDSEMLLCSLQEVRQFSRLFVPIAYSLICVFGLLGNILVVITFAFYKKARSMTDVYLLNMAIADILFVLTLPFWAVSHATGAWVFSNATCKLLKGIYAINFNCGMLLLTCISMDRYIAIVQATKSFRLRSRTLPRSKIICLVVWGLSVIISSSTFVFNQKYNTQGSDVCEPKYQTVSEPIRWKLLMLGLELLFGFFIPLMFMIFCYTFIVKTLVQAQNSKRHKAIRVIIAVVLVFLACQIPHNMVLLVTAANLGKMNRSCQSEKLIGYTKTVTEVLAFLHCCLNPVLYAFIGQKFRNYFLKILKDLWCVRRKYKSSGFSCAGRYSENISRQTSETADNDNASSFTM
Excerpt: CHO-K1 CCR6 Chemotaxis Assay Towards CCL20
Cells overexpressing human CCR6 were used in the chemotaxis assay (DiscoverX, cAMP Hunter™ CHO-K1 CCR6 Gi Cell Line). Growth medium of these cells consisted of DMEM/F12, non-essential Amino acids (1×NEAA, Gibco 11140050), 10% FBS and 1× pen/strep (Gibco 15140). For the chemotaxis assay, Corning Transwell plates were used with a pore size of 8 m (Corning 351164). Cells were harvested using trypsin and diluted to 4*10^6 cells/ml in chemotaxis medium (DMEM, 0.25% BSA, pen/strep). Compounds were four-fold serially diluted in DMSO. Further dilutions were made in chemotaxis medium. Cells were incubated with test compounds for 30 min at 37° C. prior to initiation of the assay (2*10^6 cells/ml). Final DMSO concentration in the assay was 0.2%. Wells of the Transwell plates were filled with 200 μl chemotaxis medium containing 100 ng/ml CCL20 (R&D systems 360-MP). 50 μl of the cell/compound suspension was added to the inserts of the Transwell plates (100,000 cells/insert). The Transwell plates were placed in an incubator at 37° C., 5% CO2 for 4 h. After 4 h, the number of migrated cells was quantified using CellTiter Glo (Promega). Percentage inhibition values were calculated based on the low and high signal obtained with 0.2% DMSO in chemotaxis medium without and with CCL20, respectively. The relative −Log IC50 was determined with GraphPad Prism 9 using a four-parameter dose-response model.

[2] = biological target: T1, human CCR6; assay: Human CCR6-CRE reporter assay; format: cell-based; design: The second construct contained the open reading frame of human CCR6 in the pUNO1 backbone; host or cells: 293FT cells; details: relative -Log IC50; 293FT cells transfected with human CCR6 and CRE-luciferase reporter; 6 μM Forskolin, 6 nM CCL20; 5 h
Method in brief: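 293FT cells transiently co-transfected with human CCR6 and a CRE-luc2P reporter, used 48 h later. Compounds incubated with cells in medium containing 6 μM Forskolin and 6 nM CCL20 (assay-medium levels), 0.1% DMSO final, 5 h at 37° C; luminescence read, relative −Log IC50 from four-parameter fit.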

SMILES	IC50 [1]	IC50 [2]
N#Cc1c[nH]c2ccc(-c3ccc(S(=N)(=O)[C@H]4CC[C@H](Nc5ccc(S(F)(F)(F)(F)F)cc5)CC4)cc3)cc12 (single isomer, unassigned; (+)) [Example 126, (+)-5-(4-{[trans-4-{[4-(pentafluoro-λ^6-sulfanyl)phenyl]Amino}cyclohexyl]sulfonimidoyl}phenyl)-1H-indole-3-carbonitrile]	126 nM	126 nM
N=S(=O)(c1ccc(-c2ccc(C(N)=O)cc2)cc1)[C@H]1CC[C@H](Nc2ccc(S(F)(F)(F)(F)F)cc2)CC1 (stereo partly drawn) [Example 96, 4′-{[trans-4-{[4-(pentafluoro-λ^6-sulfanyl)phenyl]Amino}cyclohexyl]sulfonimidoyl}-[1,1′-biphenyl]-4-carboxamide]	501 nM	158 nM
CC(C)c1cnc2ccc(-c3ccc(S(=O)(=O)N4CCC(Nc5ccc(S(F)(F)(F)(F)F)cc5)CC4)cc3)cn12 [Example 29, N-[4-(pentafluoro-λ^6-sulfanyl)phenyl]-1-{4-[3-(propan-2-yl)imidazo[1,2-a]pyridin-6-yl]benzenesulfonyl}piperidin-4-amine]	50.1 nM	39.8 nM
CC(C)c1nnc2ccc(-c3ccc(S(=O)(=O)N4CCC(Nc5ccc(S(F)(F)(F)(F)F)cc5)CC4)cc3)cn12 [Example 28, N-[4-(pentafluoro-λ^6-sulfanyl)phenyl]-1-{4-[3-(propan-2-yl)-[1,2,4]triazolo[4,3-a]pyridin-6-yl]benzenesulfonyl}piperidin-4-amine]	5.01 nM	31.6 nM
NC(=O)c1nnc2ccc(-c3ccc(S(=O)(=O)[C@H]4CC[C@H](Nc5ccc(S(F)(F)(F)(F)F)cc5)CC4)cc3)cn12 [Example 39, 6-(4-{[trans-4-{[4-(pentafluoro-λ^6-sulfanyl)phenyl]Amino}cyclohexyl]sulfonyl}phenyl)-[1,2,4]triazolo[4,3-a]pyridine-3-carboxamide]	79.4 nM	251 nM
O=C1NCCc2sc(-c3ccc(S(=O)(=O)[C@H]4CC[C@H](Nc5ccc(S(F)(F)(F)(F)F)cc5)CC4)cc3)cc21 [Example 153, 2-(4-{[trans-4-{[4-(pentafluoro-λ^6-sulfanyl)phenyl]amino}cyclohexyl]sulfonyl}phenyl)-4H,5H,6H,7H-thieno[3,2-c]pyridin-4-one]	15.8 nM	158 nM
CNC(=O)c1ccc(-c2ccc(S(=O)(=O)[C@H]3CC[C@H](Nc4ccc(S(F)(F)(F)(F)F)cc4)CC3)cc2)nc1 [Example 47, N-methyl-6-(4-{[trans-4-{[4-(pentafluoro-λ^6-sulfanyl)phenyl]Amino}cyclohexyl]sulfonyl}phenyl)pyridine-3-carboxamide]	794 nM	63.1 nM
CNC(=O)c1cc(-c2ccc(S(=O)(=O)[C@H]3CC[C@H](Nc4ccc(S(F)(F)(F)(F)F)cc4)CC3)cc2)ccn1 [Example 48, N-methyl-4-(4-{[trans-4-{[4-(pentafluoro-λ^6-sulfanyl)phenyl]Amino}cyclohexyl]sulfonyl}phenyl)pyridine-2-carboxamide]	39.8 nM	39.8 nM
N=S(=O)(c1ccc(-c2cccc(C(N)=O)c2)cc1)[C@H]1CC[C@H](Nc2ccc(S(F)(F)(F)(F)F)cc2)CC1 (stereo partly drawn) [Example 99, 4′-{[trans-4-{[4-(pentafluoro-λ^6-sulfanyl)phenyl]Amino}cyclohexyl]sulfonimidoyl}-[1,1′-biphenyl]-3-carboxamide]	501 nM	200 nM
Nc1cc(-c2ccc(S(=O)(=O)[C@H]3CC[C@H](Nc4ccc(S(F)(F)(F)(F)F)cc4)CC3)cc2)cn2ccnc12 [Example 159, 6-(4-{[trans-4-{[4-(pentafluoro-λ^6-sulfanyl)phenyl]amino}cyclohexyl]sulfonyl}phenyl)imidazo[1,2-a]pyridin-8-amine]	12.6 nM	63.1 nM
CNC(=O)c1ccc(-c2ccc(S(=N)(=O)N3CCC(Nc4ccc(S(F)(F)(F)(F)F)cc4)CC3)cc2)cn1 (centres unmarked) [Example 121, N-methyl-5-{4-[(4-{[4-(pentafluoro-λ^6-sulfanyl)phenyl]Amino}piperidin-1-yl)sulfonimidoyl]phenyl}pyridine-2-carboxamide]	158 nM	251 nM
CNC(=O)c1cc(-c2ccc(S(=O)(=O)N3CCC(Nc4ccc(S(F)(F)(F)(F)F)cc4)CC3)cc2)ccc1F [Example 138, 4-fluoro-N-methyl-4′-[(4-{[4-(pentafluoro-λ^6-sulfanyl)phenyl]amino}piperidin-1-yl)sulfonyl]-[1,1′-biphenyl]-3-carboxamide]	20 nM	63.1 nM
O=C1NCCc2ccc(-c3ccc(S(=O)(=O)[C@H]4CC[C@H](Nc5ccc(S(F)(F)(F)(F)F)cc5)CC4)cc3)cc21 [Example 60, 7-(4-{[trans-4-{[4-(pentafluoro-λ^6-sulfanyl)phenyl]Amino}cyclohexyl]sulfonyl}phenyl)-1,2,3,4-tetrahydroisoquinolin-1-one]	7.94 nM	158 nM
N#Cc1cnc2ccc(-c3ccc(S(=O)(=O)N4CCC(Nc5ccc(S(F)(F)(F)(F)F)cc5)CC4)c(F)c3)cn12 [Example 73, 6-{3-fluoro-4-[(4-{[4-(pentafluoro-λ^6-sulfanyl)phenyl]Amino}piperidin-1-yl)sulfonyl]phenyl}imidazo[1,2-a]pyridine-3-carbonitrile]	631 nM	501 nM
NC(=O)c1cc(-c2ccc(S(=O)(=O)[C@H]3CC[C@H](Nc4ccc(S(F)(F)(F)(F)F)cc4)CC3)cc2)co1 [Example 158, 4-(4-{[trans-4-{[4-(pentafluoro-λ^6-sulfanyl)phenyl]amino}cyclohexyl]sulfonyl}phenyl)furan-2-carboxamide]	10 nM	100 nM
O=S(=O)(c1ccc(-c2ccc3nnc(C4CNC4)n3c2)cc1)N1CCC(Nc2ccc(S(F)(F)(F)(F)F)cc2)CC1 [Example 167, 1-{4-[3-(azetidin-3-yl)-[1,2,4]triazolo[4,3-a]pyridin-6-yl]benzenesulfonyl}-N-[4-(pentafluoro-λ^6-sulfanyl)phenyl]piperidin-4-amine]	251 nM	251 nM
O=C1NCCn2cc(-c3ccc(S(=O)(=O)[C@H]4CC[C@H](Nc5ccc(S(F)(F)(F)(F)F)cc5)CC4)cc3)cc21 [Example 156, 7-(4-{[trans-4-{[4-(pentafluoro-λ^6-sulfanyl)phenyl]amino}cyclohexyl]sulfonyl}phenyl)-1H,2H,3H,4H-pyrrolo[1,2-a]pyrazin-1-one]	39.8 nM	158 nM
CNC(=O)c1ccc(-c2ccc(S(=N)(=O)[C@H]3CC[C@H](Nc4ccc(S(F)(F)(F)(F)F)cc4)CC3)cc2)cc1 (stereo partly drawn) [Example 95, N-methyl-4′-{[trans-4-{[4-(pentafluoro-λ^6-sulfanyl)phenyl]Amino}cyclohexyl]sulfonimidoyl}-[1,1′-biphenyl]-4-carboxamide]	501 nM	251 nM
Cc1cn2cc(-c3ccc(S(=O)(=O)[C@H]4CC[C@H](Nc5ccc(S(F)(F)(F)(F)F)cc5)CC4)cc3)ncc2n1 [Example 43, 4-(pentafluoro-λ^6-sulfanyl)-N-[trans-4-(4-{2-methylimidazo[1,2-a]pyrazin-6-yl}benzenesulfonyl)cyclohexyl]aniline]	316 nM	158 nM
